Reference: patent US20130022620A1, “ASSAYS AND METHODS PERTAINING TO PRE-AMYLOID INTERMEDIATES” (priority 2011, published 2013)

Tests used:
[1] = tested on: rat INS-1 β-cells; experiment: AlamarBlue cell viability assay of β-cells; format: cell-based
Description: Transformed rat insulinoma-1 (INS-1) β-cells (which express RAGE) are a pancreatic beta cell line commonly used for studies of h-IAPP induced toxicity. INS-1 cells were grown in RPMI 1640 supplemented with 10% fetal bovine serum (FBS), 11 mM glucose, 10 mM Hepes, 2 mM L-glutamine, 1 mM sodium pyruvate, 50 μM β-mercaptoethanol, 100 U/ml penicillin, and […] streptomycin. Cells were maintained at 37° C./5% CO2.
Cyto-toxicity was measured by AlamarBlue assay. INS-1 β-cells were seeded at a density of 30,000 cells per well in 96-well plates and cultured for 24 hours prior to stimulation with IAPP. Human and rat IAPP were dissolved and incubated in 16 mM tris HCl (pH 7.4, 25° C.) prior to cell stimulation. AlamarBlue was diluted ten-fold in culture media and cells were incubated for 5 hours at 37° C. Fluorescence (excitation 530; emission 590 nm) was measured on a Beckman Coulter DTX880 fluorescent plate reader. Values calculated were relative to those of control cells treated with buffer only. All values represent means±SEM (n=3).
Changes in cell morphology were examined by light microscopy to provide a second method of evaluating cell viability. Transformed rat INS-1 beta cells were photographed immediately prior to assessment of toxicity by Alamar blue cell viability assays. Images were taken using an Olympus BX-61 light microscope.

[2] = Thioflavin-T kinetics and TEM of amyloid formation by IAPP peptides; format: physicochemical; details: wild type IAPP under the conditions described
Description: Thioflavin-T fluorescence was used to monitor the time course of h-IAPP amyloid formation in the presence and absence of sRAGE. To identify which form(s) of h-IAPP interact with RAGE, sRAGE was added to h-IAPP at various time points during the h-IAPP amyloid formation reaction. Aliquots of the reaction mixture were analyzed by adding 100 uL aliquots of the amyloid formation reaction to 96-well plates containing 8 uL of 60 uM thioflavin-T solution at various incubation times after initiation of the amyloid formation reaction. Fluorescence was measured using a Beckman Coulter DTX880 fluorescent plate reader (excitation: 445 nm and emission: 485 nm). Final solution conditions contained 16 mM tris HCl and […] thioflavin-T (pH 7.4). […] All values represent means±SEM (n=3).
Transient kinetic species of h-IAPP were characterized by TEM. TEM images confirm the presence or absence of amyloid which were indicated by thioflavin-T fluorescence. Aliquots (4 μl) were removed from the reaction mixtures monitored by thioflavin-T assays, placed on a carbon-coated 200-mesh copper grid and negatively stained with saturated uranyl acetate. The samples were imaged with a Philips CM12 transmission electron microscope at the New York University electron microscopy core facility. Final solution conditions contained 16 mM tris HCl (pH 7.4).

[3] = tested on: MCP-1 and IL-1β mRNA expression; experiment: qRT-PCR of MCP-1 and IL-1β mRNA in smooth muscle cells; format: cell-based, mouse; details: peptide stimulation
Description: Mouse vascular SMCs were cultured from the aortas of 10-week-old male mice using a modification of the procedure of Tarvo and Barret. See Tarvo et al. Blood Vessels. 1980; 17:110-116. SMCs were cultured following an explant protocol in accordance with institutional guidelines. Cultures were composed of 95% SM-α-actin positivity based on immunostaining.
Assays for qRT-PCR were carried out in 6-well plates. Total cellular RNA was isolated from h-IAPP stimulated β-cells using Qiagen RNA isolation kit, and the quality of RNA samples was determined by measurement of 260:280 ratio. Only samples with a 260:280 ratio of 2.0 or higher were used for reverse transcription. RNA samples were also treated by RNAse-free DNAse to avoid genomic DNA contamination. One microgram of RNA from each sample was reverse-transcribed to cDNA using MCP-1 and IL-1β primers. Non-template negative controls were also performed to monitor non-specific reactions. RNA isolated from rat IAPP and non-h-IAPP treated beta cells were used as negative controls. Equal amounts of RNA were used in each qRT-PCR reaction, and 18S was used as the internal control for amplification at the same time. qRT-PCR reactions were carried out using an Applied Biosystems 7500 RealTime PCR machine. The relative mRNA contents were normalized using 18S and quantification was carried out using qRT-PCR Quantifier Software.

CC[C@H](C)[C@H](NC(=O)[C@H](C)NC(=O)CNC(=O)[C@H](Cc1ccccc1)NC(=O)[C@H](CC(N)=O)NC(=O)[C@H](CC(N)=O)NC(=O)[C@H](CO)NC(=O)[C@H](CO)NC(=O)[C@H](Cc1c[nH]cn1)NC(=O)[C@@H](NC(=O)[C@H](CC(C)C)NC(=O)[C@H](Cc1ccccc1)NC(=O)[C@H](CC(N)=O)NC(=O)[C@H](C)NC(=O)[C@H](CC(C)C)NC(=O)[C@H](CCCNC(=N)N)NC(=O)[C@H](CCC(N)=O)NC(=O)[C@@H](NC(=O)[C@H](C)NC(=O)[C@@H]1CSSC[C@H](NC(=O)[C@@H](N)CCCCN)C(=O)N[C@@H](CC(N)=O)C(=O)N[C@@H]([C@@H](C)O)C(=O)N[C@@H](C)C(=O)N[C@@H]([C@@H](C)O)C(=O)N1)[C@@H](C)O)C(C)C)C(=O)N[C@@H](CC(C)C)C(=O)N[C@@H](CO)C(=O)N[C@@H](CO)C(=O)N[C@H](C(=O)N[C@@H](CC(N)=O)C(=O)N[C@H](C(=O)NCC(=O)N[C@@H](CO)C(=O)N[C@@H](CC(N)=O)C(=O)N[C@H](C(=O)N[C@@H](Cc1ccc(O)cc1)C(N)=O)[C@@H](C)O)C(C)C)[C@@H](C)O [h-IAPP, human islet amyloid polypeptide]
cell toxicity of amyloid fibrils ([1]; amyloid fibrils added to cultured cells): No toxicity was observed
cell toxicity (AlamarBlue cell viability, light microscopy) ([1]; peptide incubated in buffer at room temperature for various times, then applied to INS-1 β-cells): maximum toxicity was observed at intermediate time points
toxicity of resuspended pellet after ultracentrifugation ([1]; resuspended pellet added to beta cells): the resuspended pellet is not
toxicity of soluble phase after ultracentrifugation ([1]; supernatant added to beta cells): toxic to beta cells
time at which the amyloid formation reaction reaches saturation [2]: about 40 hrs
MCP-1 and IL-1β mRNA expression in smooth muscle cells [3]: increase in MCP-1 and IL-1β mRNA expression
